Experiment [1] deals with T1, CRAC channel (endogenous SOC in HEK293 cells) (Homo sapiens, UniProt Q96D31).
T1 construct: endogenous in cells; host or cells: HEK293 (ECACC)
The experiment in a line: HEK Calcium Influx Assay (FLIPR). Type of experiment: cell-based. Here is the method:
The effect of compounds of the invention on intracellular [Ca^2+] was tested in the HEK293 cell line (ECACC). HEK293 cells were cultured in DMEM/F12/Glutamax (Gibco) containing 10% FCS (Gibco), and maintained at 37° C., 5% CO2. Cell were split twice a week [3*10^6 (Mon-Thu) and 1*10^6 (Thu-Mon) cells/50 ml medium in T-175 ZK culture flasks, respectively]. Twenty four hours pre-experiment, cells were seeded on 96 well plates (Poly-D-Lysine 96well Black/Clear Plate, BD Biocoat REF 356640) at a density of 40,000 cells/well in DMEM/F12 (Gibco) containing 10% FCS (Gibco), and maintained at 37° C., 5% CO2. Prior to store-depletion, cell culture medium was removed and cells were loaded with the a Calcium-sensitive fluorescent dye comprised within the Calcium-4-assay kit (Molecular Devices) in nominally Ca^2+-free HBS buffer (140 mM NaCl, 4 mM KCl, 0.2 mM MgCl2, 11 mM D-glucose, and 10 mM HEPES, pH 7.4) according to manufacturer's instruction for 60 min at 37° C., 5% CO2. Passive depletion of intracellular Ca^2+-stores was then triggered by employing the SERCA inhibitor thapsigargin (2 μM final) for 10 min in the dark (RT). To prevent immediate Ca^2+-entry via the activated Store-operated channels (SOCs), cells were maintained in Ca^2+-free HBS buffer comprising 100 μM EGTA during store-depletion. Intracellular changes in [Ca^2+] were subsequently monitored with the FLIPR device (Molecular Devices). In brief, baseline imaging post-store depletion was allowed for 1 min before adjusting the extracellular buffer to 3 mM CaCl2. Increases in intracellular [Ca^2+] due to pre-activated SOC channels were monitored for 15 min until intracellular Ca^2+ levels had declined into a steady-state. Finally, compounds were administered and Ca^2+ signals were recorded for additional 10 min. Inhibition of endogenous SOC in HEK293 cells was quantified employing the average Ca^2+ signal measured from 9.5-10 min post-administration. Zero percent inhibition (MAX) was defined as the Ca^2+ signal recorded from wells to which DMSO-only had been added instead of compound. Hundred percent inhibition (MIN) was defined as the signal obtained from wells in which cells haven't been treated with TG prior to Ca^2+ addition and to which DMSO-only had been added instead of compound. For routine IC50 determinations of compounds, 8 concentrations of a serial dilution (1:3.16) were tested, starting off from 10 μM. Reliable IC50's could consequently be determined only, if they were at least sub 2.5-3 μM.

The test system of experiment [2] is Interleukin-2 (IL-2) production/release in Jurkat T cell line. The experiment in a line: Jurkat IL-2 Production Assay. Format: cell-based. The settings on record: Homo sapiens; Jurkat T cells, PHA stimulation 22 hours. Here is the method: Jurkat IL-2 Production Assay
The effect of compounds of the invention on Interleukin-2 (IL-2) production/release was tested in the Jurkat T cell line (ECACC) clone E6-1. Jurkat T cells were cultured in DMEM/F12/Glutamax (Gibco) containing 10% FCS (Gibco), and maintained at 37° C., 5% CO2. Cell were split twice a week [5*10^6 (Mon-Thu) and 1*10^7 (Thu-Mon) cells/50 ml medium in T-175 ZK culture flasks, respectively]. Prior to experiment, cells were seeded on 96 well plates (Cellstar 96 Well; Cat No. 655180, Greiner bio-one) at a density of 5*10^5 cells/well in DMEM/F12/Glutamax (Gibco) containing 10% FCS (Gibco), and incubated for 60 min at 37° C., 5% CO2. Subsequently, compounds were added and cells were allowed to incubate for 30 min at 37° C., 5% CO2. Cells were then stimulated with 15 μg/ml Phytohemagglutinin (PHA; Sigma) for 22 hours at 37° C., 5% CO2. Before sampling of the supernatants, cells were spun down (200*g/5 min/RT). The amount of IL-2 released into the supernatant was quantified with the human IL-2 AlphaLisa kit (Perkin Elmer) according to manufacturer's instructions. Luminescence proximity measurements were carried out in the Synergy H4 reader (BioTek) employing the fluorescence setting of the reader (ex: 680/30 nm; em: 620/40 nm). Inhibition of IL-production/release in/from Jurkat T cells was quantified as follows: Zero percent inhibition (MAX) was defined as the [IL-2] determined in supernatants derived from cells to which PHA & DMSO-only had been added instead of compound. Hundred percent inhibition (MIN) was defined as the [IL-2] determined in supernatants derived from cells that had been pre-treated with 1 μM CyclosporineA (Sigma) before the addition of 15 μg/ml PHA. For routine IC50 determinations of compounds, 8 concentrations of a serial dilution (1:3.16) were tested, starting off from 10 μM.

Where [3] appears, read: thapsigargin store depletion, read-out: % inhib. [@ 10 μM] FLIPR.
Where [4] appears, read: numeric values of Table 2, read-out: inhib. [@ 10 μM] FLIPR.

Where a name gives a salt, the structure may show the parent alone. Read-outs that look alike come from different tables or passages of the source.

T1 sequence (Q96D31 whole entry): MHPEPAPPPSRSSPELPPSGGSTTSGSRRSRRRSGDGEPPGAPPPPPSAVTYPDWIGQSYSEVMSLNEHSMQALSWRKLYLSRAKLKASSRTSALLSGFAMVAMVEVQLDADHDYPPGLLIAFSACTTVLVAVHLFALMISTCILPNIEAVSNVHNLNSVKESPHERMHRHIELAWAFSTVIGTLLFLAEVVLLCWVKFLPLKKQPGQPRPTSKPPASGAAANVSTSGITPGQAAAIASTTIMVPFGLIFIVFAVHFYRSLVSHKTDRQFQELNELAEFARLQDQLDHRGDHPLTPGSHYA

As a reminder, the IC50 is the concentration that inhibits the measured activity by half. Regarding `CCOc1cc(OC)c(-c2cc(C(=O)Nc3c(F)cccc3F)n[nH]2)cn1` [Example 68, N-(2,6-Difluoro-phenyl)-5-(6-ethoxy-4-methoxy-pyridin-3-yl)-1H-pyrazole-3-carboxylic acid amide hydrochloride], the inhibition at 10 µM in experiment [1] (setting [3]) was > 70%. Also, the IC50 in experiment [2] fell in the range of 1 to 5 µM.
Take `COc1cc(OC)c(-c2c(C)c(C(=O)Nc3c(F)cccc3F)nn2C)cn1` [Example 64, N-(2,6-Difluoro-phenyl)-5-(4,6-dimethoxy-pyridin-3-yl)-1,4-dimethyl-1H-pyrazole-3-carboxylic acid amide]: the inhibition at 10 µM in experiment [1] (setting [3]) is > 70%. Besides, in experiment [2], the IC50 was in the range of 1 to 5 µM.
In the case of `CCOc1cc(OC2COC2)c(-c2cc(C(=O)Nc3c(F)cccc3F)nn2C)cn1` [Example 49, N-(2,6-Difluoro-phenyl)-5-[6-ethoxy-4-(oxetan-3-yloxy)-pyridin-3-yl]-1-methyl-1H-pyrazole-3-carboxylic acid amide], the inhibition at 10 µM in experiment [1] (setting [3]) is 50 to 70%. The IC50 in experiment [2] lay within 1 to 5 µM.
Consider `COc1cc(OCC2COC2)ncc1-c1cc(C(=O)Nc2c(F)cccc2F)nn1C` [Example 51, N-(2,6-Difluoro-phenyl)-5-[4-methoxy-6-(oxetan-3-yl-methoxy)-pyridin-3-yl]-1-methyl-1H-pyrazole-3-carboxylic acid amide], for which, in experiment [1] (setting [3]), the inhibition at 10 µM lay in the range of 50 to 70%. Moreover, in experiment [2], the IC50 fell in the range of 1 to 5 µM.
Take `COCCOc1cc(C)c(-c2cc(C(=O)Nc3c(F)cccc3F)nn2C)cn1` [Example 28, N-(2,6-Difluoro-phenyl)-5-[6-(2-methoxy-ethoxy)-4-methyl-pyridin-3-yl]-1-methyl-1H-pyrazole-3-carboxylic acid amide]: the results for the inhibition at 10 µM in experiment [1] (setting [4]) and in experiment [1] (setting [3]) were 87% and > 70%, respectively. Further, in experiment [2], the half-inhibitory concentration (IC50) lay in the range of 1 to 5 µM.
In the case of `Cn1nc(C(=O)Nc2c(F)cccc2F)cc1-c1cnc(C2CC2)cc1C(F)(F)F` [Example 48, 5-[6-Cyclopropyl-4-(trifluoromethyl)-pyridin-3-yl]-N-(2,6-difluoro-phenyl)-1-methyl-1H-pyrazole-3-carboxylic acid amide], the inhibition at 10 µM in experiment [1] (setting [3]) was > 70%. Further, in experiment [2], the IC50 lay within 0.5 to 1 µM.
In the case of `COc1cc(C2CC2)ncc1-c1cc(C(=O)Nc2c(F)cccc2F)nn1C` [Example 54, 5-(6-Cyclopropyl-4-methoxy-pyridin-3-yl)-N-(2,6-difluoro-phenyl)-1-methyl-1H-pyrazole-3-carboxylic acid amide], in experiment [1] (setting [3]), the inhibition at 10 µM is > 70%. Further, the IC50 in experiment [2] is < 0.5 µM.
Turning to `CCOc1cc(OC)c(-c2cc(C(=O)Nc3c(F)cccc3F)nn2C)cn1` [Example 16, N-(2,6-Difluoro-phenyl)-5-(6-ethoxy-4-methoxy-pyridin-3-yl)-1-methyl-1H-pyrazole-3-carboxylic acid amide], in experiment [1] (setting [3]), the inhibition at 10 µM was > 70%. Further, the IC50 in experiment [2] is < 0.5 µM.
For `Cc1cc(OCC2CCC2)ncc1-c1cc(C(=O)Nc2c(F)cncc2F)nn1C` [Example 20, 5-[6-(Cyclobutyl-methoxy)-4-methyl-pyridin-3-yl]-N-(3,5-difluoro-pyridin-4-yl)-1-methyl-1H-pyrazole-3-carboxylic acid amide], the values for the inhibition at 10 µM in experiment [1] (setting [4]) and in experiment [1] (setting [3]) were 121% and > 70%, respectively. The IC50 in experiment [2] was < 0.5 µM.
As for `CCOc1cc(OC)c(-c2cc(C(=O)Nc3c(F)cncc3F)nn2C)cn1` [Example 14, N-(3,5-Difluoro-pyridin-4-yl)-5-(6-ethoxy-4-methoxy-pyridin-3-yl)-1-methyl-1H-pyrazole-3-carboxylic acid amide], the inhibition at 10 µM in experiment [1] (setting [3]) was > 70%. Also, the half-inhibitory concentration (IC50) in experiment [2] was < 0.5 µM.
In the case of `Cc1cc(OC(C)C)ncc1-c1cc(C(=O)Nc2c(F)cccc2F)nn1C` [Example 13, N-(2,6-Difluoro-phenyl)-5-(6-isopropoxy-4-methyl-pyridin-3-yl)-1-methyl-1H-pyrazole-3-carboxylic acid amide], the inhibition at 10 µM is 100% in experiment [1] (setting [4]) and > 70% in experiment [1] (setting [3]). For the same compound, the half-maximal inhibitory concentration (IC50) in experiment [2] was 0.5 to 1 µM.
On to `COc1cc(OC)c(-c2c(Cl)c(C(=O)Nc3c(F)cccc3F)nn2C)cn1` [Example 57, 4-Chloro-N-(2,6-difluoro-phenyl)-5-(4,6-dimethoxy-pyridin-3-yl)-1-methyl-1H-pyrazole-3-carboxylic acid amide], for which, in experiment [1] (setting [3]), the inhibition at 10 µM was > 70%. For the same compound, the IC50 in experiment [2] fell in the range of 1 to 5 µM.
For `Cc1cc(C2CC2)ncc1-c1cc(C(=O)Nc2c(F)cccc2F)nn1C` [Example 8, 5-(6-Cyclopropyl-4-methyl-pyridin-3-yl)-N-(2,6-difluoro-phenyl)-1-methyl-1H-pyrazole-3-carboxylic acid amide], the inhibition at 10 µM was 81% in experiment [1] (setting [4]) and > 70% in experiment [1] (setting [3]). Further, the IC50 in experiment [2] was in the range of 1 to 5 µM.
For `COc1cc(OC)c(-c2c(C)c(C(=O)Nc3cnc(C)cc3C)nn2C)cn1` [Example 66, 5-(4,6-Dimethoxy-pyridin-3-yl)-N-(4,6-dimethyl-pyridin-3-yl)-1,4-dimethyl-1H-pyrazole-3-carboxylic acid amide], in experiment [1] (setting [3]), the inhibition at 10 µM fell in the range of 50 to 70%. Besides, in experiment [2], the half-inhibitory concentration (IC50) was in the range of 1 to 5 µM.
Take `Cc1cc(N(C)C)ncc1-c1cc(C(=O)Nc2c(F)cccc2F)nn1C` [Example 37, N-(2,6-Difluoro-phenyl)-5-(6-dimethylamino-4-methyl-pyridin-3-yl)-1-methyl-1H-pyrazole-3-carboxylic acid amide]: the inhibition at 10 µM is 98% in experiment [1] (setting [4]) and > 70% in experiment [1] (setting [3]). Further, the IC50 in experiment [2] was in the range of 1 to 5 µM.
Take `CCc1cc(C)c(-c2cc(C(=O)Nc3c(F)cccc3F)nn2C)cn1` [Example 6, N-(2,6-Difluoro-phenyl)-5-(6-ethyl-4-methyl-pyridin-3-yl)-1-methyl-1H-pyrazole-3-carboxylic acid amide]: the values for the inhibition at 10 µM in experiment [1] (setting [4]) and in experiment [1] (setting [3]) were 67% and > 70%, respectively. Further, in experiment [2], the half-inhibitory concentration (IC50) was in the range of 1 to 5 µM.
For `Cc1cc(OC2COC2)ncc1-c1cc(C(=O)Nc2c(F)cccc2F)nn1C` [Example 23, N-(2,6-Difluoro-phenyl)-1-methyl-5-[4-methyl-6-(oxetan-3-yloxy)-pyridin-3-yl]-1H-pyrazole-3-carboxylic acid amide], the inhibition at 10 µM in experiment [1] (setting [4]) was 94%; in experiment [1] (setting [3]), > 70%. In addition, in experiment [2], the IC50 was 1 to 5 µM.
For `COc1cc(OCC2CCC2)ncc1-c1cc(C(=O)Nc2c(F)cccc2F)nn1C` [Example 55, 5-[6-(Cyclobutyl-methoxy)-4-methoxy-pyridin-3-yl]-N-(2,6-difluoro-phenyl)-1-methyl-1H-pyrazole-3-carboxylic acid amide], the inhibition at 10 µM in experiment [1] (setting [3]) was > 70%. In addition, in experiment [2], the IC50 is < 0.5 µM.
Take `COc1cc(OC)c(-c2c(C)c(C(=O)Nc3cncc(F)c3C)nn2C)cn1` [Example 67, 5-(4,6-Dimethoxy-pyridin-3-yl)-N-(5-fluoro-4-methyl-pyridin-3-yl)-1,4-dimethyl-1H-pyrazole-3-carboxylic acid amide]: in experiment [1] (setting [3]), the inhibition at 10 µM is > 70%. Moreover, the IC50 in experiment [2] fell in the range of 1 to 5 µM.

The values are drawn from patent US20150166505A1, “PYRIDINYL-SUBSTITUTED PYRAZOLYL CARBOXAMIDES” (GRÜNENTHAL GMBH, priority 2013, published 2015).
